Results as given in ChEMBL document CHEMBL6115029, “Discovery of Daraxonrasib (RMC-6236), a Potent and Orally Bioavailable RAS(ON) Multi-selective, Noncovalent Tri-complex Inhibitor for the Treatment of Patients with Multiple RAS-Addicted Cancers” (J Med Chem, 2025).
Converted amounts (≈) assume the structure as drawn.

How the values were obtained:
[1] = Inhibition of 6His-tagged KRAS G12C mutant(1 to 169 residues)/GST-tagged GMPPNP-bound BRAF RBD (155 to 229 reisudes)/Cyclophilin A (unknown origin) tri-complex protein-protein interaction incubated for 3 hrs by TR-FERT based disruption assay; set-up: species or system Homo sapiens
[2] = Inhibition of 6His-tagged KRAS G12D mutant(1 to 169 residues)/GST-tagged GMPPNP-bound BRAF RBD (155 to 229 reisudes)/Cyclophilin A (unknown origin) tri-complex protein-protein interaction incubated for 3 hrs by TR-FERT based disruption assay; set-up: species or system Homo sapiens
[3] = system: CAPAN-1; test: Cytotoxicity against human CAPAN-1 cells harboring KRAS G12V mutant cultured as 2D cells assessed as reduction in cell viability incubated for 120 hrs by CellTiter-Glo luminescence assay; assay type: functional, cell-based; conditions: CAPAN-1, 120 h
[4] = system: NCI-H1975; test: Cytotoxicity against human NCI-H1975 cells harboring wildtype KRAS cultured as 2D cells assessed as reduction in cell viability incubated for 120 hrs by CellTiter-Glo luminescence assay; assay type: functional, cell-based; conditions: NCI-H1975, 120 h
[5] = system: NCI-H358; test: Cytotoxicity against human NCI-H358 cells harboring KRAS G12C mutant cultured as 2D cells assessed as reduction in cell viability incubated for 120 hrs by CellTiter-Glo luminescence assay; assay type: functional, cell-based; conditions: NCI-H358, 120 h
[6] = Binding affinity to Cyclophilin A/Avi-tagged KRAS G12C mutant (1 to 169 residues) (unknown origin) assessed as dissociation constant by SPR analysis; set-up: species or system Homo sapiens
[7] = Binding affinity to Cyclophilin A/Avi-tagged KRAS G12D mutant (1 to 169 residues) (unknown origin) assessed as dissociation constant by SPR analysis; set-up: species or system Homo sapiens
[8] = Binding affinity to Cyclophilin A/Avi-tagged KRAS G12V mutant (1 to 169 residues) (unknown origin) assessed as dissociation constant by SPR analysis; set-up: species or system Homo sapiens
[9] = biological target: Peptidyl-prolyl cis-trans isomerase A (Homo sapiens, UniProt P62937); test: Binding affinity to Avi-tagged Cyclophilin A (unknown origin) assessed as dissociation constant by SPR analysis
Chain of Peptidyl-prolyl cis-trans isomerase A (P62937 whole entry): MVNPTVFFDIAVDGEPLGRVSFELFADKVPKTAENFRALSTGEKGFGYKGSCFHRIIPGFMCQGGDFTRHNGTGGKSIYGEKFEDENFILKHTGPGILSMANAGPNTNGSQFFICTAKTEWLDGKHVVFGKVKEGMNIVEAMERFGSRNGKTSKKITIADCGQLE

[10] = system: ASPC1; test: Cytotoxicity against human ASPC1 cells harboring KRAS G12D mutant cultured as 2D cells assessed as reduction in cell viability incubated for 120 hrs by CellTiter-Glo luminescence assay; assay type: functional, cell-based; conditions: ASPC1, 120 h
[11] = Inhibition of 6His-tagged KRAS G12V mutant(1 to 169 residues)/GST-tagged GMPPNP-bound BRAF RBD (155 to 229 reisudes)/Cyclophilin A (unknown origin) tri-complex protein-protein interaction incubated for 3 hrs by TR-FERT based disruption assay; set-up: species or system Homo sapiens
[12] = Efflux ratio of apparent permeability in human Caco-2 cells at 5 uM incubated for 2 hrs by LC-MS/MS analysis; assay type: ADME, cell-based
[13] = Inhibition of 6His-tagged wildtype KRAS (1 to 169 residues)/GST-tagged GMPPNP-bound BRAF RBD (155 to 229 reisudes)/Cyclophilin A (unknown origin) tri-complex protein-protein interaction incubated for 3 hrs by TR-FERT based disruption assay; set-up: species or system Homo sapiens
[14] = Kinetic solubility of compound in PBS at pH 7.4 measured after 5 hrs by UV analysis; assay type: physicochemical; conditions: read-out: Kinetic_solubility
[15] = Inhibition of ERK1/2 phosphorylation in human NCI-H358 cells harboring KRAS G12C mutant incubated for 4 hrs by AlphaLISA assay; assay type: cell-based; conditions: NCI-H358, 4 h
[16] = Clearance in female BALB/c mouse at 1 mg/kg, iv measured after 24 hrs by LC-MS/MS analysis; assay type: ADME, organism-based; conditions: in vivo
[17] = Inhibition of ERK1/2 phosphorylation in human CAPAN-1 cells harboring KRAS G12V mutant incubated for 4 hrs by AlphaLISA assay; assay type: cell-based; conditions: CAPAN-1, 4 h
[18] = system: A-375; test: Cytotoxicity against human A-375 cells assessed as reduction in cell viability incubated for 120 hrs by CellTiter-Glo luminescence assay; assay type: functional, cell-based; conditions: A-375, 120 h
[19] = Oral bioavailability in female BALB/c mouse at 10 mg/kg measured after 24 hrs by LC-MS/MS analysis; assay type: ADME, organism-based; conditions: in vivo
[20] = Inhibition of ERK1/2 phosphorylation in human ASPC1 cells harboring KRAS G12D mutant incubated for 4 hrs by AlphaLISA assay; assay type: cell-based; conditions: ASPC1, 4 h
[21] = Half-life in female BALB/c mouse at 1 mg/kg, iv measured after 24 hrs by LC-MS/MS analysis; assay type: ADME, organism-based; conditions: in vivo
[22] = Apparent permeability across apical to basolateral side in human Caco-2 cells at 5 uM incubated for 2 hrs by LC-MS/MS analysis; assay type: ADME, cell-based
[23] = Metabolic stability in mouse liver microsomes assessed as half-life at 2 uM measured upto 60 mins in presence of NADPH by LC-MS/MS analysis; assay type: ADME, Microsome
[24] = Clearance in female BALB/c mouse plasma at 1 mg/kg, iv measured after 24 hrs by LC-MS/MS analysis; assay type: ADME, organism-based
[25] = Clearance in female BALB/c mouse blood at 1 mg/kg, iv measured after 24 hrs by LC-MS/MS analysis; assay type: ADME, organism-based
[26] = Lipophilicity, logD of compound at pH 7.4 by Agilent 1290 II uPLC analysis; assay type: physicochemical; conditions: buffer
[27] = Oral bioavailability in female BALB/c mouse plasma at 10 mg/kg measured after 24 hrs by LC-MS/MS analysis; assay type: ADME, organism-based
[28] = Oral bioavailability in female BALB/c mouse blood at 10 mg/kg measured after 24 hrs by LC-MS/MS analysis; assay type: ADME, organism-based
[29] = Kinetic solubility of compound in PBS at pH 5.0 measured after 5 hrs by UV analysis; assay type: physicochemical; conditions: read-out: Kinetic_solubility

Row | IC50 [1] [nM] | IC50 [2] [nM] | Kd [6] [nM] | Kd [7] [nM] | Kd [9] [nM] | IC50 [11] [nM] | efflux ratio at 2 h, 5 µM [12] | IC50 [13] [nM] | solubility kinetic at 5 h [14] [µM] | EC50 [15] [nM] | EC50 [17] [nM] | EC50 [20] [nM] | Papp A→B at 2 h, 5 µM [22] [×10⁻⁶ cm/s] | half-life at 2 µM [23] [min] | logD [26] | Compound | EC50 [3] [nM] | EC50 [4] [nM] | EC50 [5] [nM] | EC50 [10] [nM] | EC50 [18] [nM] | other results
1 | 2040 | 26100 | 2820 | 10700 | 1150 | 3520 |  |  |  |  |  |  |  |  |  | CCn1c(-c2cccnc2[C@H](C)OC)c2c3cc(ccc31)-c1cccc(c1)C[C@H](NC(=O)[C@H](C(C)C)N(C)C(C)=O)C(=O)N1CCC[C@H](N1)C(=O)OCC(C)(C)C2 | 1140 | > 10000 | 1530 | 4410 |  | Kd [8]: 4930 nM
2 | 1970 | ≥ 21200 | 1540 | 5050 | 313 | 3550 | 13.6 | 4920 | 6 (≈ 4.72 µg/mL) | 116 | 32 | 857 | 0.02 | 6 |  | CCn1c(-c2cccnc2[C@H](C)OC)c2c3cc(ccc31)-c1csc(n1)C[C@H](NC(=O)[C@H](C(C)C)N(C)C(C)=O)C(=O)N1CCC[C@H](N1)C(=O)OCC(C)(C)C2 | 149 | 57 | 199 | ≥ 715 | > 10000 | clearance [16]: 95 mL/min/kg; bioavailability [19]: ≤ 0.4%; half-life [21]: 36 min; Kd [8]: 2700 nM
3 | 54 | 385 |  |  | 130 | 78 | 9 | 152 | 45 (≈ 38.5 µg/mL) | 3.4 | 0.8 | 7.7 | 1 | 103 | 4.7 | CCn1c(-c2cc(N3CCN(CCOC)CC3)cnc2[C@H](C)OC)c2c3cc(ccc31)-c1csc(n1)C[C@H](NC(=O)[C@H]1C[C@@H]1C)C(=O)N1CCC[C@H](N1)C(=O)OCC(C)(C)C2 | 2.8 | 9.4 | 1.8 | 6.1 | > 10000 | clearance [24]: 30 mL/min/kg; clearance [25]: 6.67 mL/min/kg; bioavailability [27]: 57%; bioavailability [28]: 71%
4 | 31 | 175 |  |  | 216 | 43 | 7 | 76 | 20 (≈ 17.3 µg/mL) | 0.9 | 0.5 | 4.1 | 0.9 | 60 | 5.2 | CCn1c(-c2cc(N3CCN(C4CC4)CC3)cnc2[C@H](C)OC)c2c3cc(ccc31)-c1csc(n1)C[C@H](NC(=O)[C@H]1[C@@H]3COC[C@@H]31)C(=O)N1CCC[C@H](N1)C(=O)OCC(C)(C)C2 | 2.1 | 1.9 | 0.8 | 4.9 | 8360 | clearance [24]: 6.67 mL/min/kg; clearance [25]: 6.67 mL/min/kg; bioavailability [27]: 88%; bioavailability [28]: 63%
5 | 117 | 927 |  |  | 1760 | 165 | 1 | 344 | 3 (≈ 2.14 µg/mL) | 68 | 25 | 818 | 10.7 | 53 | 4.7 | CCn1c(-c2cccnc2[C@H](C)OC)c2c3cc(ccc31)-c1csc(n1)C[C@H](NC(=O)[C@H]1C[C@@H]1C)C(=O)N1CCC[C@H](N1)C(=O)OCC(C)(C)C2 | 129 | 69 | 83 | 236 | 8370 | solubility kinetic at 5 h [29]: < 2 µM; clearance [16]: 10 mL/min/kg; bioavailability [19]: 75%; half-life [21]: 54 min
